Data on 14 substances can be found in patent US10239957B2, “Peptide containing conjugates for dual molecular delivery of oligonucleotides” (Merck Sharp & Dohme Corp., priority 2013, dated 2019).

The test system of the assay is CTNNB1. Kind of assay: In vitro DMD assay: mRNA silencing enhancement by peptide conjugates after siRNA-IV treatment. Particulars: primary mouse hepatocytes, siRNA-IV 125 nM baseline. The format is cell-based. As to the method:
Cryopreserved primary Mouse hepatocytes (Bioreclamation, LLC) were placed into Collagen Type I coated 96-well plates at 25,000 cells per well in serum-containing InVitroGRO CP media (Bioreclamation, LLC) and allowed 5 hours to attach. Media was replaced with InVitroGRO HI media and cells were treated with siRNA-IV at 125 nM [siRNA] for 1 hour. Media was replaced with InVitroGRO HI media and cells were treated for approximately 16 hours with experimental Peptide conjugates at various concentrations to establish a dose-response curve. Peptide conjugates were washed out after 16 hours with InVitroGRO HI media and cells allowed to incubate for an additional 24 hours. Cells were then lysed and mRNA expression of the siRNA target was measured by RT-qPCR (Applied Biosystems Taqman reagents). mRNA silencing activity of each Peptide conjugate was expressed as an enhancement above the baseline activity of 125 nM siRNA-IV alone with respect to the untreated cells and all siRNA target Ct values were normalized to PPIB mRNA for each well (dddCt) and summarized.
The structure of TGN-S-S-peptide is shown below and the activity data is listed in Table 5 (siRNA-IV concentration was kept at […]).

Where no end group is shown, it is not given here. [ ]: non-standard residue; d: D form. TGN = not defined here

In the case of “TGN-S-S-SEQ ID NO: 1633(D) ([dC]G[dL][dF]G[dE][dI][dH][dH][dL][dI][dH][dH]G[dL][dE][dN][dL][dI][dD][dW][dW][dN]G; not fully specified (residue 1); also: TGN attached via disulfide; listed as Homo sapiens)”, the “In vitro dddCt (vs. baseline SCE dose)” value (Targeted peptide dose 125 nM) is reported as −0.39, the “In vitro dddCt (vs. baseline SCE dose)” value (Targeted peptide dose 625 nM) is −0.57, the “In vitro dddCt (vs. baseline SCE dose)” value (Targeted peptide dose 3125 nM) is given as −0.37 and the “In vitro dddCt (vs. baseline SCE dose)” value (Targeted peptide dose 15625 nM) is recorded as −0.69.

Take “TGN-S-S-SEQ ID NO: 1654 (D)) ([dC]G[dL][dL][dE][dE][dI][dE][dE][dL][dL][dE][dE]G[dL][dE][dN][dL][dI][dD][dW]G[dN][dS]; not fully specified (residue 1); also: TGN attached via disulfide; listed as Homo sapiens)”: the “In vitro dddCt (vs. baseline SCE dose)” value (Targeted peptide dose 125 nM) is listed as −1.05.

As for “TGN-S-S-SEQ ID NO: 1717 (L) (C(TGN)FLGALFHALSHLLENLIDWWNG; reading uncertain; also: TGN disulfide conjugate at Cys1; listed as Homo sapiens)”, the “In vitro dddCt (vs. baseline SCE dose)” value stood at 0.61 (Targeted peptide dose 25 nM), 0.37 (Targeted peptide dose 625 nM) and 0.15 (Targeted peptide dose 3125 nM).

Regarding “TGN-S-S-SEQ ID NO: 1738 (D) (G[dL][dF]G[dE][dI][dE][dE][dL][dI][dE][dE]G[dL][dE][dN][dL][dI][dD][dW]G[dN]G[dL][dA][dE][dL][dA][dE][dA][dL][dE][dA][dL][dA][dA]GG[dS][dC]; not fully specified (residue 40); also: disulfide to TGN peptide via Cys40; listed as Homo sapiens)”, the “In vitro dddCt (vs. baseline SCE dose)” value by setting is: (Targeted peptide dose 8 nM) −0.24; (Targeted peptide dose 40 nM) −0.67; (Targeted peptide dose 200 nM) −1.57; (Targeted peptide dose 1000 nM) −1.69; (Targeted peptide dose 5000 nM) −2.19.

On to “TGN-S-S-SEQ ID NO: 1740(D) (G[dL][dF][dE][dA][dI][dE]G[dF][dI][dE][dN]G[dW][dE]G[dL][dA][dE][dL][dA][dE][dA][dL][dE][dA][dL][dA][dA]GG[dS][dC]; not fully specified (residue 33); also: disulfide to TGN peptide via Cys33; listed as Homo sapiens)”, for which the “In vitro dddCt (vs. baseline SCE dose)” value runs as follows: (Targeted peptide dose 8 nM) −0.19; (Targeted peptide dose 40 nM) −0.46; (Targeted peptide dose 200 nM) −1.29; (Targeted peptide dose 1000 nM) −2.3; (Targeted peptide dose 5000 nM) −2.98.

In the case of “TGN-S-S-SEQ ID NO: 1741 (L) (GLFGALAEALAEALAEHLAEALAEALEALAAGGSC(TGN); reading uncertain; also: TGN linked to Cys via disulfide, TGN not defined; listed as Homo sapiens)”, the “In vitro dddCt (vs. baseline SCE dose)” value was 0.03 (Targeted peptide dose 8 nM); 0 (Targeted peptide dose 24 nM); −0.11 (Targeted peptide dose 40 nM); 0.02 (Targeted peptide dose 120 nM); −0.25 (Targeted peptide dose 200 nM); −0.08 (Targeted peptide dose 600 nM). Besides, the “In vitro dddCt (vs. baseline SCE dose)” value by setting is: (Targeted peptide dose 1000 nM) 0.98; (Targeted peptide dose 3000 nM) −0.4; (Targeted peptide dose 5000 nM) −0.58; (Targeted peptide dose 15000 nM) −0.25.

Take “TGN-S-S-SEQ ID NO: 1747 (D) ([dC]G[dL][dF]G[dE][dI][dE][dE][dL][dL][dE][dE]G[dL][dE][dN][dL][dI][dD][dW]G[dN]G; not fully specified (residue 1); also: disulfide to TGN peptide via Cys1; listed as Homo sapiens)”: the “In vitro dddCt (vs. baseline SCE dose)” value by setting is: (Targeted peptide dose 8 nM) −0.23; (Targeted peptide dose 40 nM) −0.7; (Targeted peptide dose 200 nM) −1.53; (Targeted peptide dose 1000 nM) −2.08; (Targeted peptide dose 5000 nM) −1.98.

With “TGN-S-S-SEQ ID NO: 1748 (D) ([dC]G[dL][dF]G[dE][dI][dE][dE][dL][dI][dE][dE][dA][dL][dE][dN][dL][dI][dD][dW]G[dN]G; not fully specified (residue 1); also: disulfide to TGN peptide via Cys1; listed as Homo sapiens)”, the “In vitro dddCt (vs. baseline SCE dose)” value runs as follows: (Targeted peptide dose 8 nM) −0.2; (Targeted peptide dose 40 nM) −0.5; (Targeted peptide dose 200 nM) −1.38; (Targeted peptide dose 1000 nM) −1.92; (Targeted peptide dose 5000 nM) −2.01.

“TGN-S-S-SEQ ID NO: 1749 (D) ([dC]G[dL][dF]G[dE][dI][dE][dE][dL][dI][dE][dE]G[dF][dE][dN][dL][dI][dD][dW]G[dN]G; not fully specified (residue 1); also: disulfide to TGN peptide via Cys1; listed as Homo sapiens)”: the “In vitro dddCt (vs. baseline SCE dose)” value (Targeted peptide dose 8 nM) stood at 0.02; the “In vitro dddCt (vs. baseline SCE dose)” value (Targeted peptide dose 40 nM) is given as −0.04; the “In vitro dddCt (vs. baseline SCE dose)” value (Targeted peptide dose 200 nM) is −0.26; the “In vitro dddCt (vs. baseline SCE dose)” value (Targeted peptide dose 1000 nM) is −0.22; the “In vitro dddCt (vs. baseline SCE dose)” value (Targeted peptide dose 5000 nM) is on record as −0.11.

Take “TGN-S-S-SEQ ID NO: 1751 (D) ([dC]G[dL][dF]G[dE][dI][dE][dE][dL][dI][dE][dE]G[dW][dE][dN][dL][dI][dD][dW]G[dN]G; not fully specified (residue 1); also: disulfide to TGN peptide via Cys1; listed as Homo sapiens)”: the “In vitro dddCt (vs. baseline SCE dose)” value is given as −0.1 (Targeted peptide dose 8 nM); −0.12 (Targeted peptide dose 40 nM); 0.09 (Targeted peptide dose 200 nM); −0.05 (Targeted peptide dose 1000 nM); 0.01 (Targeted peptide dose 5000 nM).

As for “TGN-S-S-SEQ ID NO: 1752 (D) ([dC]G[dL][dF]G[dE][dI][dE][dE][dW][dI][dE][dE]G[dL][dE][dN][dL][dI][dD][dW]G[dN]G; not fully specified (residue 1); also: disulfide to TGN peptide via Cys1; listed as Homo sapiens)”, the “In vitro dddCt (vs. baseline SCE dose)” value is, setting by setting: (Targeted peptide dose 8 nM) −0.25; (Targeted peptide dose 40 nM) −0.48; (Targeted peptide dose 200 nM) −0.89; (Targeted peptide dose 1000 nM) −0.95; (Targeted peptide dose 5000 nM) −1.02.

Turning to “TGN-S-S-SEQ ID NO: 1753 (D) ([dC]G[dL][dF]G[dE][dI][dE][dE][dF][dI][dE][dE]G[dL][dE][dN][dL][dI][dD][dW]G[dN]G; not fully specified (residue 1); also: disulfide to TGN peptide via Cys1; listed as Homo sapiens)”, the “In vitro dddCt (vs. baseline SCE dose)” value (Targeted peptide dose 8 nM) was 0.15; the “In vitro dddCt (vs. baseline SCE dose)” value (Targeted peptide dose 40 nM) is given as 0.05; the “In vitro dddCt (vs. baseline SCE dose)” value (Targeted peptide dose 200 nM) is recorded as −0.2; the “In vitro dddCt (vs. baseline SCE dose)” value (Targeted peptide dose 1000 nM) is recorded as −0.18; the “In vitro dddCt (vs. baseline SCE dose)” value (Targeted peptide dose 5000 nM) was −0.16.

For the substance “TGN-S-S-SEQ ID NO: 1755 (D) ([dC]G[dL][dF]G[dE][dI][dE][dE][dL][dF][dE][dE]G[dL][dE][dN][dL][dI][dD][dW]G[dN]G; not fully specified (residue 1); also: disulfide to TGN peptide via Cys1; listed as Homo sapiens)”, the “In vitro dddCt (vs. baseline SCE dose)” value (Targeted peptide dose 8 nM) is −0.01; the “In vitro dddCt (vs. baseline SCE dose)” value (Targeted peptide dose 40 nM) was −0.24; the “In vitro dddCt (vs. baseline SCE dose)” value (Targeted peptide dose 200 nM) is recorded as −0.38; the “In vitro dddCt (vs. baseline SCE dose)” value (Targeted peptide dose 1000 nM) is −0.49; the “In vitro dddCt (vs. baseline SCE dose)” value (Targeted peptide dose 5000 nM) is −0.24.

For “TGN-S-S-SEQ ID NO: 1758 (D) ([dC]G[dL][dF]G[dE][dI][dE][dE][dL][dI][dE][dE]G[dL][dE][dE][dL][dI][dD][dW]G[dN]G; not fully specified (residue 1); also: disulfide to TGN peptide via Cys1; listed as Homo sapiens)”, the “In vitro dddCt (vs. baseline SCE dose)” value is recorded as 0.04 (Targeted peptide dose 8 nM); −0.02 (Targeted peptide dose 40 nM); −0.38 (Targeted peptide dose 200 nM); −0.77 (Targeted peptide dose 1000 nM); −0.64 (Targeted peptide dose 5000 nM).
